# From ChEMBL document CHEMBL5380790 (J Med Chem, 2023)
# Calls of active or inactive are those of the source. No cut-off for these calls is given here.
# Experiments:
# [1] = biological target: Mast/stem cell growth factor receptor Kit (Homo sapiens, UniProt P10721, DELTA560/V654A); assay type: cell-based, GIST-430/654
# [2] = biological target: Receptor-type tyrosine-protein kinase FLT3 (Homo sapiens) (UniProt P36888); experiment: Inhibition of FLT3 (unknown origin) at 1 uM using 33P-ATP as substrate incubated for 120 mins by radiometric kinase assay
# [3] = Metabolic stability in human hepatocytes assessed as intrinsic clearance measured per million cells; assay type: ADME, cell-based, Hepatocyte; conditions: read-out: CLH
# [4] = Apparent passive permeability of compound in human Caco-2 cells at 1 uM and measured after 2 hrs by LC-MS/MS analysis; assay type: ADME, cell-based
# [5] = Efflux ratio of apparent permeability from basolateral to apical side over apical to basolateral side in human Caco-2 cells at 1 uM and measured after 2 hrs by LC-MS/MS analysis; assay type: ADME, cell-based
# [6] = Solubility of compound in FaSSIF at pH 6.5; assay type: physicochemical
# [7] = biological target: hERG (KCNH2) potassium channel (Homo sapiens, UniProt Q12809); experiment: Inhibition of human ERG potassium channel transfected in HEK293 cells at holding potential -80 mV at 10 uM and measured for 5 mins by whole cell patch clamp assay; assay type: toxicity, cell-based; conditions: HEK293 cells transfected with hERG
# [8] = Octanol-water distribution coefficient, logD of the compound at pH 7.4; assay type: physicochemical
# [9] = Dissociation constant, pKa of the compound; assay type: physicochemical
# [10] = biological target: T1, Platelet-derived growth factor receptor beta (Homo sapiens, UniProt P09619); experiment: Inhibition of PDGFRB (unknown origin) at 1 uM using 33P-ATP as substrate incubated for 120 mins by radiometric kinase assay
# [11] = biological target: T2, Mast/stem cell growth factor receptor Kit (Homo sapiens, UniProt P10721); experiment: Inhibition of wild type KIT (unknown origin) at 1 uM using 33P-ATP as substrate incubated for 120 mins by radiometric kinase assay
# Target sequence in this assay (P10721 whole entry): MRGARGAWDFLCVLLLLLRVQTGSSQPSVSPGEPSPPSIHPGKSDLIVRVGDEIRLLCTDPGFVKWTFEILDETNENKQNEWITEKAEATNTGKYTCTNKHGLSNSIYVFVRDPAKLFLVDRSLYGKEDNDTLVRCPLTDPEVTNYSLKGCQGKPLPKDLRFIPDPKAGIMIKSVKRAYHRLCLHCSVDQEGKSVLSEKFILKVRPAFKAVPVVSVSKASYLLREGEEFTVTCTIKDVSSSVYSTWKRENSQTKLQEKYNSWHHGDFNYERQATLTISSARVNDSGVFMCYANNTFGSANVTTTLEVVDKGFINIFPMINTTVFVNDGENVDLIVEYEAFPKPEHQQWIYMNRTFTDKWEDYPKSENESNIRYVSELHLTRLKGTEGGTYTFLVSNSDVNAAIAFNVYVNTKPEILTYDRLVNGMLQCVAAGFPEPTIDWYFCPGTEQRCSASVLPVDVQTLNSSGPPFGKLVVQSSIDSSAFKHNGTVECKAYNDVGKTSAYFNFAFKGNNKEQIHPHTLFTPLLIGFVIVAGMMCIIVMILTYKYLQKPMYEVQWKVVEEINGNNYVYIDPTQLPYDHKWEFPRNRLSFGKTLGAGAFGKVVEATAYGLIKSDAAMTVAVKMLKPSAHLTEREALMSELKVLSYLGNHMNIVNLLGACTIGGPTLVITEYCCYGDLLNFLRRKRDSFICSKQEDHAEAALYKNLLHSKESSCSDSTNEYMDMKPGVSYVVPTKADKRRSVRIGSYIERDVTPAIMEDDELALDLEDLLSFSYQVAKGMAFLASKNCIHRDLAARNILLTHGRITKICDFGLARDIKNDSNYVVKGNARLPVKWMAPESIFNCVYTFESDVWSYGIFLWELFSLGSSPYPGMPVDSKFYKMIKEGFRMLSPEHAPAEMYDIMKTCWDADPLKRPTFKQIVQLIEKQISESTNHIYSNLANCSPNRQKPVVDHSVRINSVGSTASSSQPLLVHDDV
# [12] = biological target: T3, Macrophage colony-stimulating factor 1 receptor (Homo sapiens, UniProt P07333); experiment: Inhibition of CSF1R (unknown origin) at 1 uM using 33P-ATP as substrate incubated for 120 mins by radiometric kinase assay
# [13] = biological target: Platelet-derived growth factor receptor alpha (Homo sapiens, UniProt P16234); experiment: Inhibition of PDGFRA (unknown origin) using 33P-ATP as substrate incubated for 120 mins by radiometric kinase assay
# [14] = biological target: T1, Platelet-derived growth factor receptor beta; experiment: Inhibition of PDGFRB (unknown origin) using 33P-ATP as substrate incubated for 120 mins by radiometric kinase assay
# [15] = biological target: T2, Mast/stem cell growth factor receptor Kit; experiment: Inhibition of wild type KIT (unknown origin) using 33P-ATP as substrate incubated for 120 mins by radiometric kinase assay
# Target sequence in this assay (P10721 whole entry): as above
# [16] = biological target: T3, Macrophage colony-stimulating factor 1 receptor; experiment: Inhibition of CSF1R (unknown origin) using 33P-ATP as substrate incubated for 120 mins by radiometric kinase assay
# [17] = biological target: Tyrosine-protein kinase Lck (Homo sapiens, UniProt P06239); experiment: Inhibition of LCK (unknown origin) using 33P-ATP as substrate incubated for 120 mins by radiometric kinase assay
# [18] = biological target: T2, Mast/stem cell growth factor receptor Kit; experiment: Binding affinity to wild type human KIT in human HEK293 cells at 1 uM by NanoBRET assay; assay type: cell-based
# Target sequence in this assay (P10721 whole entry): as above
# [19] = Genotoxicity in Salmonella typhimurium by Ames test; assay type: toxicity; conditions: salmonella enterica subsp. enterica serovar typhimurium
# [20] = Volume of distribution at steady state in CD-1 mouse at 0.2 mg/kg, iv and measured upto 24 hrs; assay type: ADME, organism-based; conditions: in vivo, read-out: Vdss
# [21] = Half life in CD-1 mouse at 0.2 mg/kg, iv and measured upto 24 hrs; assay type: ADME, organism-based; conditions: in vivo
# [22] = Oral bioavailability in CD-1 mouse at 10 mg/kg and measured upto 24 hrs; assay type: ADME, organism-based; conditions: in vivo
# [23] = Plasma clearance in Han Wistar rat at 0.2 mg/kg, iv and measured upto 24 hrs; assay type: ADME, organism-based
# [24] = Volume of distribution at steady state in Han Wistar rat at 0.2 mg/kg, iv and measured upto 24 hrs; assay type: ADME, organism-based; conditions: in vivo, read-out: Vdss
# [25] = Half life in Han Wistar rat at 0.2 mg/kg, iv and measured upto 24 hrs; assay type: ADME, organism-based; conditions: in vivo
# [26] = Oral biovailability in Han Wistar rat at 30 mg/kg and measured upto 24 hrs; assay type: ADME, organism-based; conditions: in vivo
# [27] = Oral bioavailability in Beagle dog at 20 mg/kg and measured upto 24 hrs; assay type: ADME, organism-based, Canis lupus familiaris; conditions: in vivo
# [28] = Plasma clearance in Cynomolgus monkey at 0.2 mg/kg, iv and measured upto 24 hrs; assay type: ADME, organism-based, Macaca fascicularis
# [29] = Volume of distribution at steady state in Cynomolgus monkey at 0.2 mg/kg, iv and measured upto 24 hrs; assay type: ADME, organism-based, Macaca fascicularis; conditions: in vivo, read-out: Vdss
# [30] = Half life in Cynomolgus monkey at 0.2 mg/kg, iv and measured upto 24 hrs; assay type: ADME, organism-based, Macaca fascicularis; conditions: in vivo
# [31] = Oral bioavailability in Cynomolgus monkey at 5 mg/kg and measured upto 24 hrs; assay type: ADME, organism-based, Macaca fascicularis; conditions: in vivo
# [32] = system: Mast/stem cell growth factor receptor Kit (Homo sapiens), P10721 [UNDEFINED MUTATION]; experiment: Inhibition of recombinant human KIT (557 to 558 residues) activating deletion mutant in exon 11 using polyGT and ATP as substrate preincubated for 20 mins followed by substrate addition and measured after 240 mins by FRET assay; conditions: time 260.0 min
# [33] = system: Mast/stem cell growth factor receptor Kit (Homo sapiens), P10721 [V559D]; experiment: Inhibition of recombinant human KIT V559D mutant in exon 11 using polyGT and ATP as substrate preincubated for 20 mins followed by substrate addition and measured after 240 mins by FRET assay; conditions: time 260.0 min
# [34] = system: Mast/stem cell growth factor receptor Kit (Homo sapiens), P10721 [V559A]; experiment: Inhibition of recombinant human KIT V559A mutant in exon 11 using polyGT and ATP as substrate preincubated for 20 mins followed by substrate addition and measured after 240 mins by FRET assay; conditions: time 260.0 min
# [35] = system: Mast/stem cell growth factor receptor Kit (Homo sapiens), P10721 [V560G]; experiment: Inhibition of recombinant human KIT V560G mutant in exon 11 using polyGT and ATP as substrate preincubated for 20 mins followed by substrate addition and measured after 240 mins by FRET assay; conditions: time 260.0 min
# [36] = system: Mast/stem cell growth factor receptor Kit (Homo sapiens), P10721 [T670I]; experiment: Inhibition of recombinant human KIT T670I mutant in exon 14 using polyGT and ATP as substrate preincubated for 20 mins followed by substrate addition and measured after 240 mins by FRET assay; conditions: time 260.0 min
# [37] = biological target: T2, Mast/stem cell growth factor receptor Kit; assay type: cell-based; conditions: gist430
# [38] = biological target: Mast/stem cell growth factor receptor Kit (Homo sapiens, UniProt P10721, N822K); experiment: Inhibition of KIT N822K mutant autophosphorylation in human Kasumi 1 cells harboring KIT N822K mutation in exon 17 incubated for 45 mins by Luminex-based bead assay; assay type: cell-based
# GIST430 = assay type: functional, cell-based; conditions: Homo sapiens, dose 10.0 µM
# GIST-430/654 = assay type: functional, organism-based; conditions: Homo sapiens, dose 10-35 mg/kg, route po, time 30.0 day
# T1 sequence (P09619 whole entry): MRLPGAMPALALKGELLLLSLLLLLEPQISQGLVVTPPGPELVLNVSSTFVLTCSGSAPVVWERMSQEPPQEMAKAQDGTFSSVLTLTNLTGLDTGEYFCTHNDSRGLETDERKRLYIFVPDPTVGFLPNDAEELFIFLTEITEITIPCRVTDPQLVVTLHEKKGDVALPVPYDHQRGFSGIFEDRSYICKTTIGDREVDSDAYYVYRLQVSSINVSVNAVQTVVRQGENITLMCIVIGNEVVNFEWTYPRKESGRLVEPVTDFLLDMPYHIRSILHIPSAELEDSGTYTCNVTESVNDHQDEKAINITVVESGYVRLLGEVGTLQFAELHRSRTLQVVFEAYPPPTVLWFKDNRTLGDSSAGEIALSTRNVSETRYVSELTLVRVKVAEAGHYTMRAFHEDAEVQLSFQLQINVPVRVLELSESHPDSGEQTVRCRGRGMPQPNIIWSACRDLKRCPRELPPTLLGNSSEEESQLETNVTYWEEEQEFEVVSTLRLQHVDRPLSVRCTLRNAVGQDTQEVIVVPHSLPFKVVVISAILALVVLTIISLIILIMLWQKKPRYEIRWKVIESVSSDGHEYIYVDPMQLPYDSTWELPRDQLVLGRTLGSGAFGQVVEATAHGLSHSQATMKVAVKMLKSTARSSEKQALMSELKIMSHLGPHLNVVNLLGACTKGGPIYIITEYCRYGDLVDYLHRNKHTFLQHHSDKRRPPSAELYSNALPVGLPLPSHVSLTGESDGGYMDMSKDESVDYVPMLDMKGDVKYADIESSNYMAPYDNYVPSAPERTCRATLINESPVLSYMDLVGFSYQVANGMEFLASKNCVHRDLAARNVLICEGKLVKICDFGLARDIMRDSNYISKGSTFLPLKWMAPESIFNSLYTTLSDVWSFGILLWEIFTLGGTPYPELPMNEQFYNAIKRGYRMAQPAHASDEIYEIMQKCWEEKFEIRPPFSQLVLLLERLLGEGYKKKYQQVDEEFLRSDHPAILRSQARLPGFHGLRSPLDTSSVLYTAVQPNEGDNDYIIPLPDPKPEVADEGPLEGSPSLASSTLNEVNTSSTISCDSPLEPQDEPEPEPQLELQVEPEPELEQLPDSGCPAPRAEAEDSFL
# T3 sequence (P07333 whole entry): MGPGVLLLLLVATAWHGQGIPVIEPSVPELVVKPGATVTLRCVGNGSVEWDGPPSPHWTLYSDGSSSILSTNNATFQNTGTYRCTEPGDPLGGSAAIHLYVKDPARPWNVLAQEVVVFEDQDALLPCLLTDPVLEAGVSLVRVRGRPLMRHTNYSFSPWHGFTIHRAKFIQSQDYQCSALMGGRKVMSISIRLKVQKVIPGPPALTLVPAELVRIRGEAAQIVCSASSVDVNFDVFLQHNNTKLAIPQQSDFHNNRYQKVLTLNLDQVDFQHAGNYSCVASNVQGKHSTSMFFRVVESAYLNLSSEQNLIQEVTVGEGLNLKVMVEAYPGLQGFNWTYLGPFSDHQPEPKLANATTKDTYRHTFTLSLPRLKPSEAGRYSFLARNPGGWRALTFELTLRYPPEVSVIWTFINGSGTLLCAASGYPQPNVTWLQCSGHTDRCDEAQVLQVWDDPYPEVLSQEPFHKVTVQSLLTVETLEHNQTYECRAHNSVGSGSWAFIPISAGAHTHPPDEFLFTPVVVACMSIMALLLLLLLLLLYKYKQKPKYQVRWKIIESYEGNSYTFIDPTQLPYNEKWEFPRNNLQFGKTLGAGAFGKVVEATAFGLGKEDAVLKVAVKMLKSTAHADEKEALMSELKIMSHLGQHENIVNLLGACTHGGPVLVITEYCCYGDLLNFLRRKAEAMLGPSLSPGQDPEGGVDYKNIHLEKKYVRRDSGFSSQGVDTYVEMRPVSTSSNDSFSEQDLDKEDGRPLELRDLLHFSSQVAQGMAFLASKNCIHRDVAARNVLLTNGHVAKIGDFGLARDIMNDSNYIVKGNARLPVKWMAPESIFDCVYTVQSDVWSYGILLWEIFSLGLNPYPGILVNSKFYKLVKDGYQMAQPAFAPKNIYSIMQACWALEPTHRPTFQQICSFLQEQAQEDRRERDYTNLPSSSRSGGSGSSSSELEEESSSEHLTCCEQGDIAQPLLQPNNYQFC
# Chain of Receptor-type tyrosine-protein kinase FLT3 (Homo sapiens) (P36888 whole entry): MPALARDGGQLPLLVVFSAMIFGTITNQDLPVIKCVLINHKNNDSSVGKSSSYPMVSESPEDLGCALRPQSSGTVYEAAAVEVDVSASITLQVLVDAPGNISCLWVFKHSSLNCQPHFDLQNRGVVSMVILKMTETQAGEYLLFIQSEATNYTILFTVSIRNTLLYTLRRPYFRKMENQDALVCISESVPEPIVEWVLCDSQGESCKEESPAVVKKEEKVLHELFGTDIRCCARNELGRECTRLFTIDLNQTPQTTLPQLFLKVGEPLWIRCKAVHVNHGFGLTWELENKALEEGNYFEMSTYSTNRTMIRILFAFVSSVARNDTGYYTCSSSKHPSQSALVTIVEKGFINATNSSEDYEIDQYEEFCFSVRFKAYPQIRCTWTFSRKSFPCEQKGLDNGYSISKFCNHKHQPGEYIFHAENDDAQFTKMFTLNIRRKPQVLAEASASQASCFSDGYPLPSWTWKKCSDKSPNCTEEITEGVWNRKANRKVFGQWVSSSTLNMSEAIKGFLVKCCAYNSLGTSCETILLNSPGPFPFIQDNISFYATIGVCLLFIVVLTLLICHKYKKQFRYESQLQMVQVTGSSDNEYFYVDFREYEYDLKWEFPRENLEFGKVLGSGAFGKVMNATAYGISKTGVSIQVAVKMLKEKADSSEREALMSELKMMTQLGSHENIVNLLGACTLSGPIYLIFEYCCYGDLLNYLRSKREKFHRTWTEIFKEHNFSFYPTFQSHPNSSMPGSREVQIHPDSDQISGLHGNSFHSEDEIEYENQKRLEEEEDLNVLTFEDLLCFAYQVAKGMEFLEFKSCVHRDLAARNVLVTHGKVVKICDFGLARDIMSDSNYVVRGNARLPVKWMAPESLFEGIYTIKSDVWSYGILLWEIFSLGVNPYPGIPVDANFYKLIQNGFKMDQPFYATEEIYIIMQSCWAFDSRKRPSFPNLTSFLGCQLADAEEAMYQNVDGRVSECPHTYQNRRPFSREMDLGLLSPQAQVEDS
# Chain of Mast/stem cell growth factor receptor Kit (Homo sapiens), P10721 [V559D] (P10721 whole entry V559D): as the sequence (P10721 whole entry) above, with V559D counted along it
structure (smiles),measurement,setting,value
Cn1cc(-c2ccc(CNc3cc(-c4cnc5cc(OCCCN6CCCC6)ccn45)ncn3)cc2)cn1 [IDRX-42],IC50,[1],48 nM
same,inhibition,[2],> 80%
same,hepatocyte CLint,[3],21 µL/min/1e6 cells
same,"Papp at 2 h, 1 µM",[4],5.7 ×10⁻⁶ cm/s
same,"efflux ratio at 2 h, 1 µM",[5],14
same,solubility,[6],374 µg/mL
same,"inhibition at 5 min, 10 µM",[7],-86%
same,logD,[8],2.6
same,pKa,[9],9.7
same,inhibition,[10],> 80%
same,inhibition,[11],> 80%
same,inhibition,[12],> 80%
same,IC50,[13],50 nM
same,IC50,[14],2.6 nM
same,IC50,[15],44 nM
same,IC50,[16],5.5 nM
same,IC50,[17],141 nM
same,Activity,[18],65%
same,Activity,[19],Non-Toxic
same,Vd,[20],11 L/kg
same,half-life,[21],6.9 h
same,bioavailability,[22],46%
same,clearance,[23],36.7 mL/min/kg
same,Vd,[24],23.2 L/kg
same,half-life,[25],6.8 h
same,bioavailability,[26],63%
same,bioavailability,[27],80%
same,clearance,[28],36.7 mL/min/kg
same,Vd,[29],12.4 L/kg
same,half-life,[30],4.4 h
same,bioavailability,[31],31%
same,inhibition,[32],Active
same,inhibition,[33],Active
same,inhibition,[34],Active
same,inhibition,[35],Active
same,inhibition,[36],inactive
same,IC50,[37],4 nM
same,IC50,[38],4 nM
same,Activity,GIST430,inactive
same,inhibition,GIST-430/654,Dose-Dependent Effect
